The compounds below were run against T1, recombinant 11β-HSD1 enzyme (Homo sapiens (Human), UniProt P28845) (assay: 11β-HSD1 reductase activity (HTRF Cortisol Kit)). Settings: 266 nM cortisone, 333 μM NADPH, read-out: 11b-HSD1 reductase (HTRF) IC50.
Assay type: biochemical
Experimental: Determination of 11β-HSD1 Reductase Activity
First, stock solutions of the compounds were prepared in DMSO at a concentration of […], of which serial dilutions were made in order to determine the efficacy curve.
As for the recombinant 11β-HSD1 enzyme (Cayman Chemical, MI, USA; Item No. 10007815), it was prepared in Tris Buffer 20 mM EDTA 5 mM pH 6.0 (Tris buffer) at different dilutions.
Initially, the enzyme concentration to be used in the assays in order to evaluate the biological activity of the compounds was determined. The Cortisol Kit product (Cisbio, MA, USA; Cat no. 62CRTPEG) was used for that purpose.
The protocol consisted of preparing the reaction buffer, adding 266 nM cortisone and 333 μM NADPH in Tris buffer. Then, this reaction buffer is added to the wells of the HTRF (Homogeneous Time Resolved Fluorescence) reaction plate together with the enzyme in a 4:1 ratio respectively, and incubated for 2 hours at 37° C. In the case of the control wells, two wells with Tris buffer were added, without compounds.
After the incubation time, the reagents of the Cortisol kit were added, Cortisol d2 and Cortisol cryptate in sample ratio, Cortisol d2 and cortisol cryptate 2:1:1, in a quantity according to the size of the well as indicated by the supplier (for the negative control of the kit, the cortisol d2 is replaced by the kit's reconstitution buffer). This reaction is incubated for 1 hour at room temperature in order to later read the fluorescence at 665 and 620 nm.
Once the enzyme concentration to be used has been determined, the cortisol kit protocol is continued to determine the efficacy curve for the compounds. As previously done, a plate for HTRF was prepared adding to each well of the reaction buffer, the recombinant 11β-HSD1 enzyme and the compounds to be assayed in a 3:1:1 ratio, respectively. The plate was subsequently incubated at 37° C. for 2 hours.
After the incubation time, the reagents of the cortisol kit, cortisol d2 and cortisol cryptate, are added, and were incubated again for 1 hour at room temperature. Finally, the fluorescence of each well was determined at 665 and 620 nm.

T1 sequence (P28845 whole entry): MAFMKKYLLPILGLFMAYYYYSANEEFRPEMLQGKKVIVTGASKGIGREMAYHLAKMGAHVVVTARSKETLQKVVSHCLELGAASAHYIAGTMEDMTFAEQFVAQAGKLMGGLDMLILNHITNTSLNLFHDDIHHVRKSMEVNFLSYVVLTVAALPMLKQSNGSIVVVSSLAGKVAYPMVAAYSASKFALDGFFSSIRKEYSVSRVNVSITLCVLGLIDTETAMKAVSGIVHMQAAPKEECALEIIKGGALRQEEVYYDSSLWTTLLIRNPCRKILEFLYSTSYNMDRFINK

SMILES | IC50 [nM]
c1ccc(CCc2nc(C34CC5CC(CC(C5)C3)C4)no2)cc1 [BD-31, 1-phenyl-2-(3-adamantyl-1,2,4-oxadiazol-5-yl)ethane] | 147
COc1ccc(CCc2nc(C34CC5CC(CC(C5)C3)C4)no2)cc1 [BD-32, 1-(4-methoxyphenyl)-2-(3-adamantyl-1,2,4-oxadiazol-5-yl)ethane] | 95.4
Clc1ccc(CCc2nc(C34CC5CC(CC(C5)C3)C4)no2)cc1 [BD-33, 1-(4-chlorophenyl)-2-(3-adamantyl-1,2,4-oxadiazol-5-yl)ethane] | 9.2
Fc1ccc(CCc2nc(C34CC5CC(CC(C5)C3)C4)no2)cc1 [BD-34, 1-(4-fluorophenyl)-2-(3-adamantyl-1,2,4-oxadiazol-5-yl)ethane] | 104
Brc1ccc(CCc2nc(C34CC5CC(CC(C5)C3)C4)no2)cc1 [BD-35, 1-(4-bromophenyl)-2-(3-adamantyl-1,2,4-oxadiazol-5-yl)ethane] | 9.9
Cc1ccc(CCc2nc(C34CC5CC(CC(C5)C3)C4)no2)cc1 [BD-36, 1-(4-methylphenyl)-2-(3-adamantyl-1,2,4-oxadiazol-5-yl)ethane] | 102

Each compound was assayed against T1, recombinant 11β-HSD1 enzyme (assay: 11β-HSD1 oxidase activity (HTRF Cortisol Kit)). Settings: remaining activity at 100 nM compound.
Assay type: biochemical
Experimental: Determination of 11β-HSD1 Oxidase Activity
The Cortisol Kit (Cisbio) product was used for that purpose.
For the analysis, the compounds are reconstituted in DMSO in a stock of 10 mM concentration, from which serial dilutions were prepared for the efficiency curve.
The recombinant 11β-HSD1 enzyme dilutions were prepared in 20 mM Tris Buffer 5 mM EDTA pH 6.0 (Tris buffer).
Initially, the enzyme concentration to be used was determined. For this purpose, a plate for HRTF was prepared with Tris buffer with 100 nM cortisol and 200 μM NADP+, including in the wells of the plate for HTRF together with the enzyme in a 4:1 ratio, respectively, and incubated for 2 hours at 37° C. After this time, the reagents of the Cortisol kit, Cortisol d2 and Cortisol cryptate in sample ratio, Cortisol d2 and cortisol cryptate 2:1:1 were added, incubating this new reaction for 1 hour at room temperature. Subsequently, the fluorescence was determined at 665 and 620 nm.
An HRTF plate was again prepared, where the reaction buffer, the recombinant 11β-HSD1 enzyme and the compound were added in each well in a 3:1:1 ratio, respectively. The plate was incubated at 37° C. for 2 hours. After the incubation time, the reagents of the cortisol kit, cortisol d2 and cortisol cryptate, were added as indicated above. They were then incubated at room temperature for 1 hour to finally read the fluorescence at 665 and 620 nm.

SMILES | 11b-HSD1 oxidase (activ rem %) 100 nM [%]
c1ccc(CCc2nc(C34CC5CC(CC(C5)C3)C4)no2)cc1 [BD-31, 1-phenyl-2-(3-adamantyl-1,2,4-oxadiazol-5-yl)ethane] | 86.1
COc1ccc(CCc2nc(C34CC5CC(CC(C5)C3)C4)no2)cc1 [BD-32, 1-(4-methoxyphenyl)-2-(3-adamantyl-1,2,4-oxadiazol-5-yl)ethane] | 104.1
Clc1ccc(CCc2nc(C34CC5CC(CC(C5)C3)C4)no2)cc1 [BD-33, 1-(4-chlorophenyl)-2-(3-adamantyl-1,2,4-oxadiazol-5-yl)ethane] | 107.0
Fc1ccc(CCc2nc(C34CC5CC(CC(C5)C3)C4)no2)cc1 [BD-34, 1-(4-fluorophenyl)-2-(3-adamantyl-1,2,4-oxadiazol-5-yl)ethane] | 109.0
Brc1ccc(CCc2nc(C34CC5CC(CC(C5)C3)C4)no2)cc1 [BD-35, 1-(4-bromophenyl)-2-(3-adamantyl-1,2,4-oxadiazol-5-yl)ethane] | 91.3
Cc1ccc(CCc2nc(C34CC5CC(CC(C5)C3)C4)no2)cc1 [BD-36, 1-(4-methylphenyl)-2-(3-adamantyl-1,2,4-oxadiazol-5-yl)ethane] | 110.3

Same assay, conditions: remaining activity at 100 uM compound

SMILES | 11b-HSD1 oxidase (activ rem %) 100 uM [%]
c1ccc(CCc2nc(C34CC5CC(CC(C5)C3)C4)no2)cc1 [BD-31, 1-phenyl-2-(3-adamantyl-1,2,4-oxadiazol-5-yl)ethane] | 86.20
COc1ccc(CCc2nc(C34CC5CC(CC(C5)C3)C4)no2)cc1 [BD-32, 1-(4-methoxyphenyl)-2-(3-adamantyl-1,2,4-oxadiazol-5-yl)ethane] | 62.7
Clc1ccc(CCc2nc(C34CC5CC(CC(C5)C3)C4)no2)cc1 [BD-33, 1-(4-chlorophenyl)-2-(3-adamantyl-1,2,4-oxadiazol-5-yl)ethane] | 75.4
Fc1ccc(CCc2nc(C34CC5CC(CC(C5)C3)C4)no2)cc1 [BD-34, 1-(4-fluorophenyl)-2-(3-adamantyl-1,2,4-oxadiazol-5-yl)ethane] | 77.2
Brc1ccc(CCc2nc(C34CC5CC(CC(C5)C3)C4)no2)cc1 [BD-35, 1-(4-bromophenyl)-2-(3-adamantyl-1,2,4-oxadiazol-5-yl)ethane] | 104.0
Cc1ccc(CCc2nc(C34CC5CC(CC(C5)C3)C4)no2)cc1 [BD-36, 1-(4-methylphenyl)-2-(3-adamantyl-1,2,4-oxadiazol-5-yl)ethane] | 95.3

Each compound was assayed on 11β-HSD2 (assay: 11β-HSD2 oxidase activity in human hepatic microsomes (HTRF Cortisol Kit)). Settings: remaining activity at 100 nM compound.
Assay type: biochemical
Experimental: Determination of 11β-HSD2 Oxidase Activity
The concentration of cortisone produced in the reaction, with and without the compounds, was determined using the Cortisol Kit (Cisbio) product in order to evaluate the 11β-HSD2 oxidase activity.
As in the previous assays, the compounds are reconstituted in DMSO to 10 mM stock, in order to subsequently make serial dilutions to determine the efficacy curve.
To perform the assay, the HTRF plate was prepared containing Tris buffer, 100 nM cortisol and 200 μM NAD^+. Enzyme is added to the corresponding wells in a 4:1 ratio, respectively, and incubated for 2 hours at 37° C. For the kit control, two wells are added only with Tris buffer.
After the incubation time, the reagents of the Cortisol kit, Cortisol d2 and Cortisol cryptate, in a sample ratio, Cortisol d2 and cortisol cryptate 2:1:1 are added. For the negative control, cortisol d2 was replaced in some wells by the kit's reconstitution buffer. The plate was incubated for 1 hour at room temperature to later read at 665 and 620 nm.
For this purpose, the reaction buffer was prepared and subsequently, in a plate for HTRF, the reaction buffer, the microsomes in a concentration of 5 mg/mL and the compound in a ratio of 3:1:1, respectively, were added to each well. In the case of reaction controls, the reaction buffer without cortisol and without compound is included for the negative control. For the positive control, no compound is added, and for the kit controls, only the reaction buffer is added to the negative and positive control wells.
After incubating the plate for 2 hours, the reagents of the cortisol kit, cortisol d2 and cortisol cryptate, are added to the corresponding wells as indicated above. They are then incubated at room temperature for 1 hour to finally read the 665 and 620 nm fluorescence.

SMILES | 11b-HSD2 oxidase (activ rem %) Microcosms 100 nM [%]
c1ccc(CCc2nc(C34CC5CC(CC(C5)C3)C4)no2)cc1 [BD-31, 1-phenyl-2-(3-adamantyl-1,2,4-oxadiazol-5-yl)ethane] | 55.4
COc1ccc(CCc2nc(C34CC5CC(CC(C5)C3)C4)no2)cc1 [BD-32, 1-(4-methoxyphenyl)-2-(3-adamantyl-1,2,4-oxadiazol-5-yl)ethane] | 60.0
Clc1ccc(CCc2nc(C34CC5CC(CC(C5)C3)C4)no2)cc1 [BD-33, 1-(4-chlorophenyl)-2-(3-adamantyl-1,2,4-oxadiazol-5-yl)ethane] | 59.4
Fc1ccc(CCc2nc(C34CC5CC(CC(C5)C3)C4)no2)cc1 [BD-34, 1-(4-fluorophenyl)-2-(3-adamantyl-1,2,4-oxadiazol-5-yl)ethane] | 68.8
Brc1ccc(CCc2nc(C34CC5CC(CC(C5)C3)C4)no2)cc1 [BD-35, 1-(4-bromophenyl)-2-(3-adamantyl-1,2,4-oxadiazol-5-yl)ethane] | 79.5
Cc1ccc(CCc2nc(C34CC5CC(CC(C5)C3)C4)no2)cc1 [BD-36, 1-(4-methylphenyl)-2-(3-adamantyl-1,2,4-oxadiazol-5-yl)ethane] | 40.1

From US12304894B2, “Derivatives of adamantyl oxadiazoles and pharmaceutically acceptable solvates, hydrates and salts thereof, pharmaceutical composition comprising same, synthesis method, suitable for use as effective and selective inhibitors of the reductase activity of the enzyme 11-beta dehydrogenase type 1 …” (PONTIFICIA UNIVERSIDAD CATOLICA DE CHILE, priority 2019, dated 2025)
